Literature values, collected in patent publication US10894017B1 (XSPRAY PHARMA AB, priority 2019, dated 2021).

Assays:
[1] = clinical bio-equivalence studies
[2] = high permeability and low solubility
[3] = within and between patients

CC(O)CO.Cc1nc(Nc2ncc(C(=O)Nc3c(C)cccc3Cl)s2)cc(N2CCN(CCO)CC2)n1 [1,2-propanediol solvate, dasatinib 1,2-propanediol solvate]
AUC compared to Sprycel [1]: higher AUC

Cc1nc(Nc2ncc(C(=O)Nc3c(C)cccc3Cl)s2)cc(N2CCN(CCO)CC2)n1 [Dasatinib monohydrate]
BCS classification [2]: BCS II

Cc1nc(Nc2ncc(C(=O)Nc3c(C)cccc3Cl)s2)cc(N2CCN(CCO)CC2)n1 [anhydrate form N-6]
AUC compared to Sprycel [1]: higher AUC

Cc1nc(Nc2ncc(C(=O)Nc3c(C)cccc3Cl)s2)cc(N2CCN(CCO)CC2)n1 [dasatinib]
coefficient of variation of AUC [3]: up to 100%
coefficient of variation of Cmax [3]: up to 100%
